Drawing on ChEMBL document CHEMBL4808212 (Bioorg Med Chem Lett, 2021), this text covers IC50 and Ki for 6 compounds.

Assay [1] concerns the target Replicase polyprotein 1ab (Severe acute respiratory syndrome coronavirus 2, UniProt P0DTD1). The experiment in a line: Inhibition of SARS-CoV-2 3CLpro preincubated for 30 mins followed by addition of (Dabcyl)KTSAVLQSGFRKM(Glu) peptide substrate and measured after […] by FRET assay.
Assay [2] is described as follows: Inhibition of SARS coronavirus 1 3CL protease expressed in Escherichia coli measured by HPLC method. Also noted: species or system Severe acute respiratory syndrome-related coronavirus.
The nature of assay [3]: Binding affinity to SARS coronavirus 1 3CL protease using Dabcyl-KTSAVLQ/SGFRKME-Edans as substrate measured by FRET assay. Also noted: species or system Severe acute respiratory syndrome-related coronavirus.
Assay [4] is described as follows: Inhibition of SARS coronavirus 1 3CL protease using Dabcyl-KTSAVLQ/SGFRKME-Edans as substrate measured by FRET assay. Set-up: species or system Severe acute respiratory syndrome-related coronavirus.

Regarding `O=C[C@H](C[C@@H]1CCNC1=O)NC(=O)[C@H](Cc1cccc(F)c1)NC(=O)c1cc2ccccc2[nH]1`, the IC50 in assay [1] is 23 nM.

Turning to `COc1cccc2[nH]c(C(=O)N[C@@H](CC(C)C)C(=O)N[C@@H](C[C@@H]3CCNC3=O)C(=O)CO)cc12` [PF-00835231], the IC50 in assay [2] was 4 nM.

`CC(C)C[C@H](NC(=O)OCc1ccccc1)C(=O)N[C@@H](C[C@@H]1CCNC1=O)C(=O)c1nc2ccccc2s1`: the half-maximal inhibitory concentration (IC50) in assay [1] is > 10000 nM.

As for `CCOC(=O)/C=C/[C@H](C[C@@H]1CCNC1=O)NC(=O)[C@H](CC(C)C)NC(=O)[C@@H](NC(=O)OCc1ccccc1)C(C)C`, in assay [1], inhibition was half-maximal at 286 nM (IC50).

In assay [3], `C[C@@H](OC(C)(C)C)[C@H](NC(=O)OCc1ccccc1)C(=O)N[C@@H](CC1CCCCC1)C(=O)N[C@H](C=O)C[C@@H]1CCNC1=O` registered a Ki of 53 nM.

`CC(C)C[C@H](NC(=O)OCc1ccccc1)C(=O)N[C@@H](CC(C)C)C(=O)N[C@@H](C[C@@H]1CCNC1=O)C(=O)C(=O)NC(C)C`: the values for the IC50 in assay [1] and in assay [4] were 65 nM and 7 nM, respectively.
